Reference: the supplement of paper PMC8671470
± gives the standard deviation of the averaged measurements.

How the values were obtained:
Details in all cases: 72 h
HL-60 [1] = assay: area under dose-response curve (viability, 1 nM-10 uM) (fraction (0-1)); higher = more sensitive
Outline: (§1)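 Area under the curve, where listed, was derived from four-parameter log-logistic fits with drc and PharmacoGx. These fits used CellTiter-Glo viability from HL-60 cells in RPMI 1640 with 10% FBS, normalised to DMSO wells and wells holding 10 μM proteasome inhibitor. The full library was rescreened on 384-well plates in duplicate at five tenfold concentrations, 1–10,000 nM, with DMSO or 100 nM of one of three metabolic inhibitors, for 72 h at 37 °C, 5% CO2.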

HL-60 [2] = assay: cell viability (% survival relative to DMSO control); higher = less cytotoxic
Outline: as §1

KCL-22 [3] = test system: KCL-22
Outline: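 Fifteen myeloid leukaemia lines were incubated for 72 h at 37 °C with 5% CO2 across five tenfold doses from 1 to 10,000 nM, in duplicate. ATP luminescence was normalised to vehicle and to a positive control at 10 µM and fitted with a four-parameter log-logistic model. The IC50 came from these dose–response fits.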

BV-173 = assay: cell viability (% survival relative to DMSO control, bortezomib = 0%); higher = less cytotoxic
Outline: (§2)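 Percent survival figures are means of duplicate wells. They were obtained by CellTiter-Glo luminescence after 10 AML and 5 CML cell lines spent 72 h at 37 °C with 5% CO2 in 384-well plates with compounds at 1, 10, 100, 1000 or 10000 nM. Vehicle was set to 100% and a 10 µM positive control to 0%.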

KU-812 = assay: as above
Outline: as §2

SHI-1 = assay: as above
Outline: as §2

HL-60 [4] = assay: as above
Outline: as §2

ML-2 = assay: as above
Outline: as §2

KG-1 = assay: as above
Outline: as §2

MV4-11 = assay: as above
Outline: as §2

LAMA-84 = assay: as above
Outline: as §2

NOMO-1 = assay: as above
Outline: as §2

Mono-Mac-6 = assay: as above
Outline: as §2

THP-1 = assay: as above
Outline: as §2

HEL = assay: as above
Outline: as §2

MOLM-13 = assay: as above
Outline: as §2

K-562 = assay: as above
Outline: as §2

KCL-22 [5] = assay: as above
Outline: as §2

Oc1ncc(F)c(O)n1 [5-fluorouracil]
Details | area under dose-response curve, co-treatment: AZD3965 100 nM | area under dose-response curve, co-treatment: DMSO vehicle | area under dose-response curve, co-treatment: GSK2194069 100 nM | area under dose-response curve, co-treatment: pictilisib 100 nM | cell viability, 1 nM [%] | cell viability, 10 nM [%] | cell viability, 100 nM [%] | cell viability, 1000 nM [%] | cell viability, 10000 nM [%]
BV-173 | – | – | – | – | 99 | 110 | 85.6 | 86.4 | 16.3
HEL | – | – | – | – | 95.1 | 104 | 84.2 | 73.8 | 31.8
HL-60 [1] | < 0.0301 | < 0.0301 | < 0.0301 | < 0.0301 | – | – | – | – | –
HL-60 [4] | – | – | – | – | 113 | 120 | 138 | 61.2 | 27.1
K-562 | – | – | – | – | 101 | 114 | 91.5 | 108 | 68.9
KCL-22 [5] | – | – | – | – | 98.9 | 120 | 98.3 | 84.3 | 30.6
KG-1 | – | – | – | – | 101 | 114 | 85.8 | 83.5 | 46.2
KU-812 | – | – | – | – | 97.6 | 100 | 88.4 | 88 | 66.6
LAMA-84 | – | – | – | – | 91.1 | 98.5 | 99.8 | 86.9 | 48.8
ML-2 | – | – | – | – | 93 | 99.4 | 102 | 78.9 | 29.5
MOLM-13 | – | – | – | – | 128 | 109 | 82.2 | 22.4 | 2.01
MV4-11 | – | – | – | – | 96 | 111 | 85 | 26.3 | 1.31
Mono-Mac-6 | – | – | – | – | 95.4 | 95.5 | 88.4 | 47.9 | 19.3
NOMO-1 | – | – | – | – | 92.2 | 105 | 95.1 | 68.5 | 61.9
SHI-1 | – | – | – | – | 91.6 | 110 | 102 | 70.9 | 44.6
THP-1 | – | – | – | – | 101 | 111 | 99.3 | 97.8 | 63.3

cell viability [%], HL-60 [2]
Details | 0.001 µM | 0.01 µM | 0.1 µM | 1 µM | 10 µM
co-treatment: AZD3965 100 nM | 97.8 ± 1.2 | 98.3 ± 0.43 | 102 ± 8.5 | 102.9 ± 0.25 | 55 ± 2.8
co-treatment: DMSO vehicle | 101.99 ± 0.046 | 97.89 ± 0.79 | 98.8 ± 2.7 | 102 ± 3 | 76.1 ± 2.4
co-treatment: GSK2194069 100 nM | 99.6 ± 4.6 | 104 ± 4.3 | 99 ± 12 | 100 ± 5.7 | 75.9 ± 2.7
co-treatment: pictilisib 100 nM | 102 ± 3.1 | 75.9 ± 36 | 113 ± 31 | 96.5 ± 4.7 | 68.7 ± 1.1

Details | IC50 (cell viability) [µM]
KCL-22 [3] | 2.68

Cl.OC[C@H]1NC[C@H](O)[C@@H](O)[C@H]1O [Migalastat]
Details | area under dose-response curve, co-treatment: AZD3965 100 nM | area under dose-response curve, co-treatment: DMSO vehicle | area under dose-response curve, co-treatment: GSK2194069 100 nM | area under dose-response curve, co-treatment: pictilisib 100 nM | cell viability, 1 nM [%] | cell viability, 10 nM [%] | cell viability, 100 nM [%] | cell viability, 1000 nM [%] | cell viability, 10000 nM [%]
BV-173 | – | – | – | – | 97.1 | 102 | 113 | 105 | 87.6
HEL | – | – | – | – | 99.2 | 99.3 | 101 | 104 | 101
HL-60 [1] | < 0.0301 | < 0.0301 | < 0.0301 | < 0.0301 | – | – | – | – | –
HL-60 [4] | – | – | – | – | 92.9 | 86.1 | 113 | 106 | 106
K-562 | – | – | – | – | 109 | 94.7 | 107 | 101 | 99.1
KCL-22 [5] | – | – | – | – | 95.6 | 90.2 | 101 | 102 | 100
KG-1 | – | – | – | – | 104 | 98.9 | 107 | 99.6 | 96.3
KU-812 | – | – | – | – | 92.1 | 92.3 | 99.4 | 98.1 | 98.5
LAMA-84 | – | – | – | – | 106 | 96.8 | 103 | 99 | 92.7
ML-2 | – | – | – | – | 98.5 | 97.1 | 111 | 103 | 100
MOLM-13 | – | – | – | – | 83.6 | 89.2 | 104 | 116 | 101
MV4-11 | – | – | – | – | 117 | 95.7 | 100 | 104 | 97.2
Mono-Mac-6 | – | – | – | – | 102 | 87.4 | 104 | 98.3 | 103
NOMO-1 | – | – | – | – | 101 | 103 | 104 | 100 | 94.8
SHI-1 | – | – | – | – | 113 | 96.2 | 109 | 102 | 107
THP-1 | – | – | – | – | 102 | 99.1 | 104 | 98.7 | 90.9

cell viability [%], HL-60 [2]
Details | 0.001 µM | 0.01 µM | 0.1 µM | 1 µM | 10 µM
co-treatment: AZD3965 100 nM | 106 ± 1.8 | 108 ± 2.8 | 102.1 ± 0.12 | 106 ± 2.9 | 102 ± 6.1
co-treatment: DMSO vehicle | 103 ± 1.2 | 103 ± 8.1 | 96.5 ± 2.1 | 100 ± 1.6 | 95.4 ± 4.5
co-treatment: GSK2194069 100 nM | 106 ± 1.1 | 110 ± 3.4 | 104 ± 6 | 103 ± 8.2 | 94.79 ± 0.12
co-treatment: pictilisib 100 nM | 102 ± 4.4 | 112 ± 3.5 | 99.4 ± 5.2 | 106 ± 5.2 | 94.1 ± 11

Details | IC50 (cell viability) [µM]
KCL-22 [3] | > 10
